According to ChEMBL document CHEMBL4507282, “Data for DCP probe BI-1950” (2021):

What was measured:
[1] = target: Peripheral plasma membrane protein CASK (Homo sapiens) (UniProt O14936); settings: Compound concentration 1000.0 nM
[2] = target: TRAF2 and NCK-interacting protein kinase (Homo sapiens) (UniProt Q9UKE5); settings: Compound concentration 1000.0 nM
[3] = target: Microtubule-associated serine/threonine-protein kinase 1 (Homo sapiens) (UniProt Q9Y2H9); settings: Compound concentration 1000.0 nM
[4] = target: Inhibitor of nuclear factor kappa-B kinase subunit beta (Homo sapiens) (UniProt O14920); settings: Compound concentration 1000.0 nM
[5] = target: Death-associated protein kinase 2 (Homo sapiens) (UniProt Q9UIK4); settings: Compound concentration 1000.0 nM
[6] = target: AP2-associated protein kinase 1 (Homo sapiens) (UniProt Q2M2I8); settings: Compound concentration 1000.0 nM
[7] = target: Aurora kinase B (Homo sapiens) (UniProt Q96GD4); settings: Compound concentration 1000.0 nM
[8] = tested on: Tyrosine-protein kinase ABL1 (Homo sapiens), P00519 [M351T]; settings: Compound concentration 1000.0 nM
[9] = target: Ephrin type-A receptor 5 (Homo sapiens) (UniProt P54756); settings: Compound concentration 1000.0 nM
[10] = target: Myotonin-protein kinase (Homo sapiens) (UniProt Q09013); settings: Compound concentration 1000.0 nM
[11] = tested on: Receptor-type tyrosine-protein kinase FLT3 (Homo sapiens), P36888 [D835H]; settings: Compound concentration 1000.0 nM
[12] = target: 5-hydroxytryptamine receptor 1E (Homo sapiens) (UniProt P28566); settings: Compound concentration 10.0 uM
[13] = target: Serine/threonine-protein kinase pim-3 (Homo sapiens) (UniProt Q86V86); settings: Compound concentration 1000.0 nM
[14] = target: Membrane-associated tyrosine- and threonine-specific cdc2-inhibitory kinase (Homo sapiens) (UniProt Q99640); settings: Compound concentration 1000.0 nM
[15] = target: Serine/threonine-protein kinase PLK1 (Homo sapiens) (UniProt P53350); settings: Compound concentration 1000.0 nM
[16] = target: Activin receptor type-1B (Homo sapiens) (UniProt P36896); settings: Compound concentration 1000.0 nM
[17] = target: Alpha-1A adrenergic receptor (Homo sapiens) (UniProt P35348); settings: Compound concentration 10.0 uM
[18] = target: Ribosomal protein S6 kinase alpha-3 (Homo sapiens) (UniProt P51812); settings: Compound concentration 1000.0 nM
[19] = target: Mitogen-activated protein kinase 14 (Homo sapiens) (UniProt Q16539); settings: Compound concentration 1000.0 nM
[20] = target: Dual specificity testis-specific protein kinase 1 (Homo sapiens) (UniProt Q15569); settings: Compound concentration 1000.0 nM
[21] = target: Death-associated protein kinase 1 (Homo sapiens) (UniProt P53355); settings: Compound concentration 1000.0 nM
[22] = tested on: ALK tyrosine kinase receptor (Homo sapiens), Q9UM73 [L1196M]; settings: Compound concentration 1000.0 nM
[23] = target: Mitogen-activated protein kinase kinase kinase kinase 1 (Homo sapiens) (UniProt Q92918); settings: Compound concentration 1000.0 nM
[24] = target: Serine/threonine-protein kinase Chk2 (Homo sapiens) (UniProt O96017); settings: Compound concentration 1000.0 nM
[25] = target: Phosphatidylinositol 3-kinase C2 domain-containing subunit gamma (Homo sapiens) (UniProt O75747); settings: Compound concentration 1000.0 nM
[26] = target: Platelet-derived growth factor receptor alpha (Homo sapiens) (UniProt P16234); settings: Compound concentration 1000.0 nM
[27] = target: Serine/threonine-protein kinase PLK3 (Homo sapiens) (UniProt Q9H4B4); settings: Compound concentration 1000.0 nM
[28] = target: Sodium-dependent serotonin transporter (Homo sapiens) (UniProt P31645); settings: Compound concentration 10.0 uM
[29] = target: Mitogen-activated protein kinase kinase kinase kinase 2 (Homo sapiens) (UniProt Q12851); settings: Compound concentration 1000.0 nM
[30] = target: SRSF protein kinase 2 (Homo sapiens) (UniProt P78362); settings: Compound concentration 1000.0 nM
[31] = target: STE20-like serine/threonine-protein kinase (Homo sapiens) (UniProt Q9H2G2); settings: Compound concentration 1000.0 nM
[32] = target: Mitogen-activated protein kinase 3 (Homo sapiens) (UniProt P27361); settings: Compound concentration 1000.0 nM
[33] = target: Serine/threonine-protein kinase 38-like (Homo sapiens) (UniProt Q9Y2H1); settings: Compound concentration 1000.0 nM
[34] = target: Dual specificity protein kinase CLK1 (Homo sapiens) (UniProt P49759); settings: Compound concentration 1000.0 nM
[35] = tested on: Mast/stem cell growth factor receptor Kit (Homo sapiens), P10721 [V559D,T670I]; settings: Compound concentration 1000.0 nM
[36] = target: D(3) dopamine receptor (Homo sapiens) (UniProt P35462); settings: Compound concentration 10.0 uM
[37] = target: Dual specificity mitogen-activated protein kinase kinase 7 (Homo sapiens) (UniProt O14733); settings: Compound concentration 1000.0 nM
[38] = target: Ephrin type-B receptor 2 (Homo sapiens) (UniProt P29323); settings: Compound concentration 1000.0 nM
[39] = target: Mitogen-activated protein kinase kinase kinase 3 (Homo sapiens) (UniProt Q99759); settings: Compound concentration 1000.0 nM
[40] = target: Tyrosine-protein kinase receptor TYRO3 (Homo sapiens) (UniProt Q06418); settings: Compound concentration 1000.0 nM
[41] = target: Serine/threonine-protein kinase SBK1 (Homo sapiens) (UniProt Q52WX2); settings: Compound concentration 1000.0 nM
[42] = target: Serine/threonine-protein kinase TNNI3K (Homo sapiens) (UniProt Q59H18); settings: Compound concentration 1000.0 nM
[43] = target: Tyrosine-protein kinase Srms (Homo sapiens) (UniProt Q9H3Y6); settings: Compound concentration 1000.0 nM
[44] = target: Serine/threonine-protein kinase BRSK2 (Homo sapiens) (UniProt Q8IWQ3); settings: Compound concentration 1000.0 nM
[45] = target: Beta-1 adrenergic receptor (Homo sapiens) (UniProt P08588); settings: Compound concentration 10.0 uM

Chain of Death-associated protein kinase 1 (Homo sapiens) (P53355 whole entry, looked up): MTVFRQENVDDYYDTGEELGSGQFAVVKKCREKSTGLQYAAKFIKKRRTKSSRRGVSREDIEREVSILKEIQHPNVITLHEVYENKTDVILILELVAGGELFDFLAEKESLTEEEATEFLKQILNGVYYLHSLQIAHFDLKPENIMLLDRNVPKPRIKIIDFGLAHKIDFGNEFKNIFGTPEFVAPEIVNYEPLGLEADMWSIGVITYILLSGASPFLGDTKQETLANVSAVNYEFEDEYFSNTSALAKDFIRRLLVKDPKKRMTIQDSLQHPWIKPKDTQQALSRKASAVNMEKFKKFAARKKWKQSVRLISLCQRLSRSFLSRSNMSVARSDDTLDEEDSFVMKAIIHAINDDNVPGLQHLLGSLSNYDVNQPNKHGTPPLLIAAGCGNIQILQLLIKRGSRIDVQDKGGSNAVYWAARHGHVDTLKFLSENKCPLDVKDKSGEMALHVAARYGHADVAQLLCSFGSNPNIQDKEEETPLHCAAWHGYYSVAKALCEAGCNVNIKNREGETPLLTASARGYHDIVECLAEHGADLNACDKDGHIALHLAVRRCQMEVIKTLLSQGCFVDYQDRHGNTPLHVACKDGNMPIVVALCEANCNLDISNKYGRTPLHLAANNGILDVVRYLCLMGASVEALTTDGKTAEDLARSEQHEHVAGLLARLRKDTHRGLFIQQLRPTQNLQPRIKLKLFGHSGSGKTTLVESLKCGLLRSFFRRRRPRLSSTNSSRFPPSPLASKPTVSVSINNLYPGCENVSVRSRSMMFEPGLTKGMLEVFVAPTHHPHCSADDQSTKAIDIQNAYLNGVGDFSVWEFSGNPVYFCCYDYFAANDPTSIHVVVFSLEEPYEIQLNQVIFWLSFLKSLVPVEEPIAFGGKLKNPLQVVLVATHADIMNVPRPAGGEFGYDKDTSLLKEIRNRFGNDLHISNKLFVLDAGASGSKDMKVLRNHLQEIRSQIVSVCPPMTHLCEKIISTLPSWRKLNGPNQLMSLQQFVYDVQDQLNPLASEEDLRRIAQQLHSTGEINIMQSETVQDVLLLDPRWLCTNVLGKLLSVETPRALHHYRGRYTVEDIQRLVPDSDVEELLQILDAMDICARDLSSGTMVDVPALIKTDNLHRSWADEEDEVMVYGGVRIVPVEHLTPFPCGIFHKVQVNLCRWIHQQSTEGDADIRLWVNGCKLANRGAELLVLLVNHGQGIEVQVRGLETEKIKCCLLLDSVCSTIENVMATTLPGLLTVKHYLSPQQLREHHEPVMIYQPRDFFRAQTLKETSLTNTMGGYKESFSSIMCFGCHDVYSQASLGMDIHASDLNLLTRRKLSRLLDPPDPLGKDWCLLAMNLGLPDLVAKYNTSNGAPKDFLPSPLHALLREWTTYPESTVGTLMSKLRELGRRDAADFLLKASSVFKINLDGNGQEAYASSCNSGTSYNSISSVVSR
Chain of Activin receptor type-1B (Homo sapiens) (P36896 whole entry): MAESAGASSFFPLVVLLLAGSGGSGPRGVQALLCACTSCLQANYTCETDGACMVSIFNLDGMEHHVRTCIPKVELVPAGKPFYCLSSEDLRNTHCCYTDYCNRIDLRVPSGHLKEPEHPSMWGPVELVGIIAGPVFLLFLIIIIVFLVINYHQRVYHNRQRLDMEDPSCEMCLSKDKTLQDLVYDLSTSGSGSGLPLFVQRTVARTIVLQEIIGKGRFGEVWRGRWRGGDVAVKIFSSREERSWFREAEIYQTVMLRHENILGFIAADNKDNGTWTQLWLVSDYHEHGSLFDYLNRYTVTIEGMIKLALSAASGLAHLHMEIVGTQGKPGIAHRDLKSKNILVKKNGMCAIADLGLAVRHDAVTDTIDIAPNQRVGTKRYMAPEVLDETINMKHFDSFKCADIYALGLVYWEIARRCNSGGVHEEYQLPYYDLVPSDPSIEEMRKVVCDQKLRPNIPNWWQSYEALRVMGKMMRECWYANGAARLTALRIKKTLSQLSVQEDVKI
Chain of Sodium-dependent serotonin transporter (Homo sapiens) (P31645 whole entry, looked up): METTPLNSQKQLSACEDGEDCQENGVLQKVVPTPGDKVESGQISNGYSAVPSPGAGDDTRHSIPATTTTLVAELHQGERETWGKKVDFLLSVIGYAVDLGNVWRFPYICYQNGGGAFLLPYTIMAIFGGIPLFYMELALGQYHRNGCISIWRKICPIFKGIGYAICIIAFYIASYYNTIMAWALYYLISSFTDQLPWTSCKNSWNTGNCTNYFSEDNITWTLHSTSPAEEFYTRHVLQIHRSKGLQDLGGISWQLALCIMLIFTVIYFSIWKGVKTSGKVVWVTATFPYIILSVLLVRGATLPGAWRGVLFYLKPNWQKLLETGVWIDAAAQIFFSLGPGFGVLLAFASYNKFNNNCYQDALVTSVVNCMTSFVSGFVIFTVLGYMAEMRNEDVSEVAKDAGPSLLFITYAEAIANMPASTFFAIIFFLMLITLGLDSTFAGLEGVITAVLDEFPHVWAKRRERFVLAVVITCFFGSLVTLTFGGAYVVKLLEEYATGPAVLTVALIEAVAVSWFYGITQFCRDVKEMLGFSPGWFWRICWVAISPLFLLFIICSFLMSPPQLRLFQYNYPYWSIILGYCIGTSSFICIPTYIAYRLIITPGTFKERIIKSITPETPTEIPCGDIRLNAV
Chain of Aurora kinase B (Homo sapiens) (Q96GD4 whole entry): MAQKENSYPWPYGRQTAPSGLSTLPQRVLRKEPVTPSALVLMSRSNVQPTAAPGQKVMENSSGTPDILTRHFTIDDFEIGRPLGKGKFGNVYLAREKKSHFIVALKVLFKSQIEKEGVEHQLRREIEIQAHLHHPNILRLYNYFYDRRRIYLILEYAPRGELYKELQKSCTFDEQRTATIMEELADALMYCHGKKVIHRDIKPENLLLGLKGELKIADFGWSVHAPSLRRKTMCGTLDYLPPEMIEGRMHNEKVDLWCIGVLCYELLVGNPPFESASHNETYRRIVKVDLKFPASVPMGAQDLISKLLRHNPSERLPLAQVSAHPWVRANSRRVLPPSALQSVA
Chain of Mitogen-activated protein kinase 3 (Homo sapiens) (P27361 whole entry): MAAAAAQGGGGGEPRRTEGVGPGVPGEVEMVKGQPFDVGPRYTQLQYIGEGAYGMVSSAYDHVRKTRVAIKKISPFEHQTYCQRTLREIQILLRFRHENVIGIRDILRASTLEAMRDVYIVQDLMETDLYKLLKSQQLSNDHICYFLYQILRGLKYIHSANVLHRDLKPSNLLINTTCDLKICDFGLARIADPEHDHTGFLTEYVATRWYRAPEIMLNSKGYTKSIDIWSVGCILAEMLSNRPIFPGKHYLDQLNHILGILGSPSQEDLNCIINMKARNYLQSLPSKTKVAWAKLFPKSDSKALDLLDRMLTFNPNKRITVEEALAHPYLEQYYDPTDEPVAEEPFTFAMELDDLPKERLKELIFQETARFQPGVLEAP
Chain of SRSF protein kinase 2 (Homo sapiens) (P78362 whole entry, looked up): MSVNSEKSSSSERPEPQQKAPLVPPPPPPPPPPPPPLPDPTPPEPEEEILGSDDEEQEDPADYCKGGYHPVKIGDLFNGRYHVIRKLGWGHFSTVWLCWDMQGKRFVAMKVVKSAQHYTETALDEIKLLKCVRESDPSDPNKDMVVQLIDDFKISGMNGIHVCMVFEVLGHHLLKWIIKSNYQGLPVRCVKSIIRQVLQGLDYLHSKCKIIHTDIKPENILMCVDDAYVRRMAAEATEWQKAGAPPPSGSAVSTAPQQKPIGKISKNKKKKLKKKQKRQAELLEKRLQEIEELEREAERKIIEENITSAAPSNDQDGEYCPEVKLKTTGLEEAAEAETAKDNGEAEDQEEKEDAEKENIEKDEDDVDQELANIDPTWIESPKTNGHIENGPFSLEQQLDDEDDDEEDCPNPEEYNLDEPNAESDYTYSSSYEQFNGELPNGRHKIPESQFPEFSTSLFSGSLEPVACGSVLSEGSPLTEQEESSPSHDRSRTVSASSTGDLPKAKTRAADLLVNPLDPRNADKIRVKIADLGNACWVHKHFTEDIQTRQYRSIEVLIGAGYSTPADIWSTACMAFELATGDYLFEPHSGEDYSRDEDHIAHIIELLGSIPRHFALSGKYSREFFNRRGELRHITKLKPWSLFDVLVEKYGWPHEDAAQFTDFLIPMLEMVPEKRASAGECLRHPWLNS
Chain of Alpha-1A adrenergic receptor (Homo sapiens) (P35348 whole entry): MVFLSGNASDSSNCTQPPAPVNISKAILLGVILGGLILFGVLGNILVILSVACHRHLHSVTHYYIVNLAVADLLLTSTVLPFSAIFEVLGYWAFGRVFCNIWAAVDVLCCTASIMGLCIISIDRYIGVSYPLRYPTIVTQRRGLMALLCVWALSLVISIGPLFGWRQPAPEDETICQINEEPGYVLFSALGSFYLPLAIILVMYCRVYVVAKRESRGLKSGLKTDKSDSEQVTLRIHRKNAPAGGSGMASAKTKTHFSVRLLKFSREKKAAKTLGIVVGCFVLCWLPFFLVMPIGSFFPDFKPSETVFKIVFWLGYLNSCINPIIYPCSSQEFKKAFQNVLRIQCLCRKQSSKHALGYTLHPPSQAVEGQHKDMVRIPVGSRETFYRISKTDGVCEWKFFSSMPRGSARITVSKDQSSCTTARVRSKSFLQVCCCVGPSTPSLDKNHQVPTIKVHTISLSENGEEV
Chain of Tyrosine-protein kinase Srms (Homo sapiens) (Q9H3Y6 whole entry): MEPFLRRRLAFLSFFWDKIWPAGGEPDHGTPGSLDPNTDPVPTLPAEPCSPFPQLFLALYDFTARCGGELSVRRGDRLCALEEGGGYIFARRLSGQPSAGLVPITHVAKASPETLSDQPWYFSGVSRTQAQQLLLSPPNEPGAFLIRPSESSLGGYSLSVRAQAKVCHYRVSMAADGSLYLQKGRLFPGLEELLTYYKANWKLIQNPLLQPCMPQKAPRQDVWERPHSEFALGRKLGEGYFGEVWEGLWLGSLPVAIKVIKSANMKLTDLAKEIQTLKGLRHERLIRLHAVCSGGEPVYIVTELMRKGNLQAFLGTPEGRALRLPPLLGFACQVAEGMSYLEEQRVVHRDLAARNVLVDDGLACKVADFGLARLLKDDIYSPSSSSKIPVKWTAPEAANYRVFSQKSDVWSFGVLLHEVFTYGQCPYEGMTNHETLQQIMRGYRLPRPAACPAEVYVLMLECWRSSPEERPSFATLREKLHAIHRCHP

## C[C@H](NC(=O)c1cnc2n1[C@](C)(Cc1ccc(C#N)cc1)C(=O)N2c1cc(Cl)c(F)c(Cl)c1)C(=O)NC1(c2ccccn2)CC1 [BI 1950]
[1]
  residual activity: 100%
[2]
  residual activity: 100%
[3]
  residual activity: 100%
[4]
  residual activity: 90%
[5]
  residual activity: 100%
[6]
  residual activity: 100%
[7]
  residual activity: 100%
[8]
  residual activity: 100%
[9]
  residual activity: 100%
[10]
  residual activity: 67%
[11]
  residual activity: 100%
[12]
  inhibition: 17.7%
[13]
  residual activity: 100%
[14]
  residual activity: 79%
[15]
  residual activity: 100%
[16]
  residual activity: 99%
[17]
  inhibition: -8.89%
[18]
  residual activity: 100%
[19]
  residual activity: 100%
[20]
  residual activity: 100%
[21]
  residual activity: 100%
[22]
  residual activity: 100%
[23]
  residual activity: 100%
[24]
  residual activity: 100%
[25]
  residual activity: 100%
[26]
  residual activity: 100%
[27]
  residual activity: 81%
[28]
  inhibition: -4.33%
[29]
  residual activity: 100%
[30]
  residual activity: 100%
[31]
  residual activity: 100%
[32]
  residual activity: 91%
[33]
  residual activity: 49%
[34]
  residual activity: 86%
[35]
  residual activity: 100%
[36]
  inhibition: -3.54%
[37]
  residual activity: 100%
[38]
  residual activity: 100%
[39]
  residual activity: 100%
[40]
  residual activity: 100%
[41]
  residual activity: 100%
[42]
  residual activity: 65%
[43]
  residual activity: 100%
[44]
  residual activity: 100%
[45]
  inhibition: 24.1%

## C[C@@]1(Cc2ccc(C#N)cc2)C(=O)N(c2cc(Cl)cc(Cl)c2)c2ncc(C(=O)NC3(c4nc(C5CCC5)no4)CC3)n21 [BI 9446]
[1]
  residual activity: 100%
[2]
  residual activity: 100%
[3]
  residual activity: 100%
[4]
  residual activity: 100%
[5]
  residual activity: 84%
[6]
  residual activity: 100%
[7]
  residual activity: 100%
[8]
  residual activity: 100%
[9]
  residual activity: 100%
[10]
  residual activity: 100%
[11]
  residual activity: 100%
[12]
  inhibition: 31.5%
[13]
  residual activity: 100%
[14]
  residual activity: 75%
[15]
  residual activity: 100%
[16]
  residual activity: 100%
[17]
  inhibition: -1.65%
[18]
  residual activity: 100%
[19]
  residual activity: 100%
[20]
  residual activity: 100%
[21]
  residual activity: 100%
[22]
  residual activity: 100%
[23]
  residual activity: 100%
[24]
  residual activity: 100%
[25]
  residual activity: 100%
[26]
  residual activity: 100%
[27]
  residual activity: 100%
[28]
  inhibition: 5.35%
[29]
  residual activity: 100%
[30]
  residual activity: 100%
[31]
  residual activity: 100%
[32]
  residual activity: 86%
[33]
  residual activity: 48%
[34]
  residual activity: 100%
[35]
  residual activity: 100%
[36]
  inhibition: 9.55%
[37]
  residual activity: 100%
[38]
  residual activity: 94%
[39]
  residual activity: 100%
[40]
  residual activity: 100%
[41]
  residual activity: 95%
[42]
  residual activity: 72%
[43]
  residual activity: 100%
[44]
  residual activity: 100%
[45]
  inhibition: 29.7%
